Series [1] concerns ALAS1 target site. The series is described as follows: In vivo base editing with ABE mRNA and sgRNA targeting ALAS1. More on the design: species or system Balb/c mice. Conditions: for Liver Editing A->G (%): 4 days after dosing. As to the method: (§1) Lipid nanoparticle components are dissolved in 100% ethanol at specified lipid component molar ratios. mRNA encoding an adenine base editor and a chemically-modified sgRNA is dissolved at a mass ratio of 1:1 in 10 mM citrate, 100 mM NaCl, pH 4.0, resulting in a concentration of NA cargo of approximately 0.22 mg/mL. LNP preparations are formulated with molar ratios of either 50% Ionizable Lipid: 38.5% Cholesterol: 1.5% PEG2000-DMG: 10% DSPC or 47.5% Ionizable Lipid: 40% Cholesterol: 2.5% PEG2000-DMG: 10% DSPC both at a total lipid to NA molar ratio of 6.
(§2) LNP preparations are formed by microfluidic mixing of the lipid and NA solutions using a Precision Nanosystems NanoAssemblr Ignite Instrument, according to the manufacturer's protocol. A 3:1 ratio of aqueous to organic solvent is maintained during mixing using differential flow rates. After mixing, LNP preparations are collected, diluted in PBS (approximately 2:1 v/v), and further buffer exchange is conducted using dialysis in PBS at 4° C. for 8 to 24 hours against a 20 kDa filter. After this initial dialysis, each individual LNP preparation is characterized via dynamic light scattering (DLS) to measure size and polydispersity. pKa of a subpopulation of LNP preparations is measured via TNS assay. After dialysis, LNP preparations are sterile filtered using 0.22 micron sterile filter and stored at 4° C. for further use. In some embodiments, LNP preparations may be concentrated using 100 kDa Amicon filters per manufacturer's protocol.
Male Balb/C mice aged approximately 8-12 weeks are used in the experiments described herein. Each mouse is temporarily restrained, and LNP preparations are administered IV via tail vein injection. Age-matched mice are also used to administer vehicle (1×PBS) via tail vein injection as a control. Four to six days post-dose, tissues including liver, spleen, heart and muscle are collected (only liver and muscle (quardracept) are reported). Genomic DNA is isolated and fragmented and adapter-ligated using the Nextera DNA Flex Library Prep Kit (Illumina) using the 96-well plate Nextera indexing primers (Illumina), according to the manufacturer's instructions. Library size and concentration is confirmed by Fragment Analyzer (Agilent) and sent to Novogene for whole genome sequencing using an Illumina HiSeq.
For base editing, mRNA encoding an adenine base editor (ABE) and a guide RNA (sgRNA) targeting ALAS1 at 1:1 (mass ratio) are coencapsulated in LNP preparations as described herein. LNP preparations are administrated into Balb/c mice through tail vein injections at concentrations ranging from 0.05 to 3.0 mg/kg total RNA. At 4 days after dosing, mice are euthanized and liver, spleen and bone barrow are harvested. Base editing is determined by performing targeted deep sequencing analysis at the ALAS1 target site using extracted genomic DNA.

The nature of series [2]: LNP preparation characterization (encapsulation efficiency, DLS size and polydispersity), barcoded screen LNPs. It counts as physicochemical. To be noted: LNP 47.5% ionizable lipid: 40% cholesterol: 2.5% PEG-2000 DMG: 10% DPSC, N/P 4.5-6; for AVG PDI / AVG Z Dia (nm): DLS. As to the method: Lipid nanoparticle components were dissolved in 100% ethanol at specified lipid component molar ratios. Nucleic acid (NA) cargo was dissolved in 10 mM citrate, 100 mM NaCl, pH 4.0, resulting in a concentration of NA cargo of approximately 0.22 mg/mL. In some embodiments, NA cargos included both a functional NA and a reporter barcode mixed at mass ratios of 1:10 to 10:1 functional NA to barcode. As described herein, a NA can be a siRNA, an anti-sense, an expressing DNA, or mRNA.
LNP preparations were prepared with 47.5% Ionizable Lipid (e.g., a compound provided herein): 40% cholesterol: 2.5% PEG-2000 DMG: 10% DPSC and an N/P ratio range of 4.5-6. LNP preparations were formed by microfluidic mixing of the lipid and NA solutions using Precision Nanosystems NanoAssemblr Spark or Benchtop series Instruments, according to the manufacturer's protocol.
A ratio of aqueous to organic solvent of approximately 2:1 or 3:1 was maintained during mixing using differential flow rates. After mixing, LNP preparations were collected, diluted in phosphate buffer saline (PBS) or Tris-buffered saline (TBS) (approximately 1:1 v/v). Further buffer exchange was conducted using dialysis in PBS or TBS at 4° C. for 4 to 24 hours against a 20 kDa filter. After this initial dialysis, each individual LNP preparation may be characterized via dynamic light scattering (DLS) to measure the size (e.g., diameter) and polydispersity. LNP preparations falling within specific diameter and polydispersity ranges were pooled, and further dialyzed against PBS or TBS at 4° C. for 1 to 4 hours against a 100 kDa dialysis cassette. After the second dialysis, LNP preparations were sterile filtered using 0.22 μm filter and stored at 4° C. for further use.

Series [3] can be described thus: LNP characterization of base editor LNP preparations (DLS diameter, PDI, encapsulation efficiency). It counts as physicochemical. As to the method:
as §1, §2
DLS—LNP preparation hydrodynamic diameter and polydispersity index (PDI) is measured using high throughput dynamic light scattering (DLS) (DynaPro plate reader II, Wyatt). LNP preparations are diluted 1×PBS to an appropriate concentration and analyzed.
Concentration of NA is determined by Qubit microRNA kit (for siRNA) or HS RNA kit (for mRNA) per manufacturer's instructions. Encapsulation efficiency is determined by measuring unlysed and lysed LNPs.

Setting [4] is: Table C LNPs, formulation ratio 47.5:40:2.5:10, ABE mRNA/ALAS1 sgRNA.
Setting [5] is: dose 3 MPK IV, formulation ratio 50:38.5:1.5:10, quadricep muscle.
Where [6] appears, read: Table D LNPs, formulation ratio 50:38.5:1.5:10, ABE mRNA/ALAS1 sgRNA.
The mark [7] stands for this setting: dose 3 MPK IV, formulation ratio 50:38.5:1.5:10, liver.

Molecules are shown by their SMILES.

Take `CCCCCCCC(CCCCCCC)OC(=O)CCCCCC(=O)OCC(COC(=O)CCCCCC(=O)OC(CCCCCCC)CCCCCCC)COC(=O)CCCN1CCCC1` [Compound (21), O1-[2-[[7-(1-heptyloctoxy)-7-oxo-heptanoyl]oxymethyl]-3-(4-pyrrolidin-1-ylbutanoyloxy)propyl] O7-(1-heptyloctyl) heptanedioate]: in series [1] (dose 0.05 MPK IV, formulation ratio 47.5:40:2.5:10, liver), the “Liver Editing A->G (%)” value came to 0.5%. Moreover, in series [2], the “AVG EE(%)” value amounted to 95.1%, the “AVG PDI” value amounted to 0.13 and the “AVG Z Dia (nm)” value is on record as 75.95 nm. In addition, in series [3] (setting [4]), the “Diameter (nm)” value came to 62.08 nm, the “EE (%)” value came to 98.19% and the “PDI (%)” value was 6%.

Regarding `C=CCCCC(CCCC=C)OC(=O)CCCCC(=O)OCC(COC(=O)CCCCC(=O)OC(CCCC=C)CCCC=C)COC(=O)CCCN1CCCC1` [Compound (33), 1-[2-({[6-Oxo-6-(undeca-1,10-dien-6-yloxy)hexanoyl]oxy}methyl)-3-{[4-(pyrrolidin-1-yl)butanoyl]oxy}propyl] 6-undeca-1,10-dien-6-yl hexanedioate], in series [1] (setting [5]), the “Quadrecept Editing A->G (%)” value was 0.1%. Also, in series [2], the “AVG EE(%)” value is recorded as 98.3%, the “AVG PDI” value is 0.10 and the “AVG Z Dia (nm)” value is listed as 133.71 nm. In addition, in series [3] (setting [6]), the “Diameter (nm)” value was 179.7 nm, the “EE (%)” value is 75.69% and the “PDI (%)” value is listed as 23.4%.

`C=CCCCCCCC(CCCCCCC=C)OC(=O)CCCCC(=O)OCC(COC(=O)CCCCC(=O)OC(CCCCCCC=C)CCCCCCC=C)COC(=O)CCCN1CCCC1` [Compound (3), 1-Heptadeca-1,16-dien-9-yl6-[2-({[6-(hentadeca-1,16-dien-9-yloxy)-6-oxohexanoyl]oxy}methyl)-3-{[4-(pyrrolidin-1-yl)butanoyl]oxy}propyl]hexanedioate]: the “Liver Editing A->G (%)” value in series [1] (setting [7]) is 69.43%. Moreover, the “Quadrecept Editing A->G (%)” value in series [1] (setting [5]) was determined as 3.8%. For the same molecule, in series [2], the “AVG EE(%)” value is 85.3%, the “AVG PDI” value is recorded as 0.13 and the “AVG Z Dia (nm)” value stood at 77.22 nm. Moreover, in series [3] (setting [6]), the “Diameter (nm)” value is listed as 69.8 nm, the “EE (%)” value came out at 99.3% and the “PDI (%)” value was found to be 11.9%.

For `C=CCCCCC(CCCCC=C)OC(=O)CCCCCCC(=O)OCC(COC(=O)CCCCCCC(=O)OC(CCCCC=C)CCCCC=C)COC(=O)CCCN1CCCC1` [Compound (6), 1-[2-({[8-Oxo-8-(trideca-1,12-dien-7-yloxy)octanoyl]oxy}methyl)-3-{[4-(pyrrolidin-1-yl)butanoyl]oxy}propyl]-8-trideca-1,12-dien-7-yl octanedioate], the “Liver Editing A->G (%)” value in series [1] (setting [7]) is 78.46%. Further, the “Quadrecept Editing A->G (%)” value in series [1] (setting [5]) is recorded as 1.17%. Also, in series [2], the “AVG EE(%)” value worked out at 78.0%, the “AVG PDI” value stood at 0.10 and the “AVG Z Dia (nm)” value was 97.43 nm. For the same molecule, in series [3] (setting [6]), the “Diameter (nm)” value is listed as 73.7 nm, the “EE (%)” value is reported as 98.07% and the “PDI (%)” value is 15.3%.

Regarding `C=CCCCCCC(CCCCCC=C)OC(=O)CCCCCC(=O)OCC(COC(=O)CCCCCC(=O)OC(CCCCCC=C)CCCCCC=C)COC(=O)OCC1CCCN(CC)C1` (stereo not drawn) [Compound (25), O1-[2-[(1-ethyl-3-piperidyl)methoxycarbonyloxymethyl]-3-[7-(1-hept-6-enyloct-7-enoxy)-7-oxo-heptanoyl]oxy-propyl] O7-(1-hept-6-enyloct-7-enyl) heptanedioate], in series [1] (dose 0.05 MPK IV, formulation ratio 50:38.5:1.5:10, liver), the “Liver Editing A->G (%)” value worked out at 0.27%. For the same molecule, the “Quadrecept Editing A->G (%)” value in series [1] (dose 3 MPK IV, formulation ratio 47.5:40:2.5:10, quadricep muscle) was 2.93%. Also, in series [2], the “AVG EE(%)” value amounted to 94.4% and the “AVG PDI” value came out at 0.12. Moreover, in series [3] (setting [4]), the “Diameter (nm)” value was 75.47 nm, the “EE (%)” value came to 99.1% and the “PDI (%)” value came out at 1.2%. For the same molecule, in series [3] (setting [6]), the “Diameter (nm)” value is on record as 79.55 nm and the “EE (%)” value is recorded as 96.9%.

For the molecule `CC/C=C\CCCC(CCC/C=C\CC)OC(=O)CCCCC(=O)OCC(COC(=O)CCCCC(=O)OC(CCC/C=C\CC)CCC/C=C\CC)COC(=O)CCCN1CCCC1` [Compound (12), 1-{2-[({6-Oxo-6-[(3Z,12Z)-pentadeca-3,12-dien-8-yloxy]hexanoyl}oxy)methyl]-3-{[4-(pyrrolidin-1-yl)butanoyl]oxy}propyl}6-(3Z,12Z)-pentadeca-3,12-dien-8-yl hexanedioate], the “Quadrecept Editing A->G (%)” value in series [1] (setting [5]) worked out at 0.22%. Besides, in series [2], the “AVG EE(%)” value was 63.6%, the “AVG PDI” value was 0.12 and the “AVG Z Dia (nm)” value worked out at 105.44 nm. Moreover, in series [3] (setting [6]), the “Diameter (nm)” value is on record as 82.7 nm, the “EE (%)” value was 72.57% and the “PDI (%)” value worked out at 17.4%.

For `O=C(CCCCCCC(=O)OC(CCCCCC(F)(F)F)CCCCCC(F)(F)F)OCC(COC(=O)CCCCCCC(=O)OC(CCCCCC(F)(F)F)CCCCCC(F)(F)F)COC(=O)CCCN1CCCC1` [Compound (16), 1-(1,1,1,13,13,13-Hexafluorotridecan-7-yl)-8-{2-[({8-[(1,1,1,13,13,13-hexafluorotridecan-7-yl)oxy]-8-oxooctanoyl}oxy)methyl]-3-{[4-(pyrrolidin-1-yl)butanoyl]oxy}propyl} octanedioate], the “Liver Editing A->G (%)” value in series [1] (setting [7]) came out at 72.41%. In addition, in series [1] (setting [5]), the “Quadrecept Editing A->G (%)” value is given as 0.6%. In series [2], the “AVG EE(%)” value is on record as 64.3%, the “AVG PDI” value amounted to 0.09 and the “AVG Z Dia (nm)” value is 129.85 nm. For the same molecule, in series [3] (setting [6]), the “Diameter (nm)” value was 96.8 nm, the “EE (%)” value came out at 96.3% and the “PDI (%)” value came to 13.5%.
